Measured values published in US8618054B2, “Interleukin-1 receptor antagonists, compositions, and methods of treatment” (Valorisation-Rechereche Société en Commandite, priority 2004, dated 2013).
Marks after values point to notes of the source that are not given here. Each block holds one molecule with its values, some of them ahead of it. Where a SMILES comes first, the peptide text is derived from it.

Columns and labels:
[1] = target: T1, IL-1R/IL-1RacP receptor (Sus scrofa, UniProt A0A5G2QSI4); assay: IL-1-induced PGE2 synthesis in piglet brain microvascular endothelial cells; format: cell-based, porcine; conditions: endothelial cells; for inhibition of IL-1-induced PGE2 synthesis, compared with parent API-101: alanine scan peptides 10^−6M
T1 construct: endogenous in cells; host or cells: piglet brain microvascular endothelial cells
T1 sequence (A0A5G2QSI4 21-572): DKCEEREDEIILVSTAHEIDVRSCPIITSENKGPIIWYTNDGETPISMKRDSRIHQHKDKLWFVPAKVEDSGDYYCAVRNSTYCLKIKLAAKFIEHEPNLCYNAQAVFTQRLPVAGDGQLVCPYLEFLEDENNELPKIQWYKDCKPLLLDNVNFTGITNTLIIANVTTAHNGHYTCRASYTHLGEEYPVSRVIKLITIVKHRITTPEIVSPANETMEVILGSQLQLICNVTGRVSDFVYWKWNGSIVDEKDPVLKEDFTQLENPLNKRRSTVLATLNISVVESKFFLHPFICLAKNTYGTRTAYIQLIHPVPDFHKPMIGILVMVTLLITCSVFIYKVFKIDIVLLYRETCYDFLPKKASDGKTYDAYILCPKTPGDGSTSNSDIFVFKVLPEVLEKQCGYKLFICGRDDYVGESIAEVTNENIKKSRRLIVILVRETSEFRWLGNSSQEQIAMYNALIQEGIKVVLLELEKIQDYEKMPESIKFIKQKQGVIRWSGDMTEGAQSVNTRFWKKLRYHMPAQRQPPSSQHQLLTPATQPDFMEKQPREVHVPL
Protocol: (§1) It is well known in the art that IL-1 induces the synthesis of prostaglandin E2 (PGE2) in endothelial cells and/or chondrocytes in vitro. Therefore, human chondrocytes and piglet brain microvascular endothelial cells were pre-incubated 45-60 minutes at 37° C. with peptide API-101 (^10−6M) and human IL-1 (10 ng/ml) was added in the growing medium. After 24 hours of incubation, growth medium was collected and evaporated. PGE2 measurement was determined by RIA assay with a commercial kit (Cederlane).

[2] = target: T2, IL-1R (Homo sapiens, UniProt P14778); assay: Characterization of peptidomimetics (FIGS. 26, 29, 30; assay not stated); conditions: FIG. 26
T2 sequence (P14778 18-569): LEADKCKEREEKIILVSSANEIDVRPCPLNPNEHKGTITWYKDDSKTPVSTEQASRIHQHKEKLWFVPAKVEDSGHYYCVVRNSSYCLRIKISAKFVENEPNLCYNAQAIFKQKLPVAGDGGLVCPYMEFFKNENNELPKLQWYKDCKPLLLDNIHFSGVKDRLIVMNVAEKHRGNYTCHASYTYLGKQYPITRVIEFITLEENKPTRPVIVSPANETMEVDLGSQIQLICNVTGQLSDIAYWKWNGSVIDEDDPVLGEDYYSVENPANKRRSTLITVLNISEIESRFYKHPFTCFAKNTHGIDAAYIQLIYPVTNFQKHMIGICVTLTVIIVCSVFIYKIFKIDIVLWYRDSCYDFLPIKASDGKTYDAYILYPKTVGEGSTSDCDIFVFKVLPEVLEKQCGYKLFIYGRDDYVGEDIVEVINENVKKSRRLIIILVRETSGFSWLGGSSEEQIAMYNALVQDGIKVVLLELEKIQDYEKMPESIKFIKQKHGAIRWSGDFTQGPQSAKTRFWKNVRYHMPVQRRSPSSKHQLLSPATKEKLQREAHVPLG

[3] = tested on: IL-1R/IL-1RacP receptor; assay: IL-1-induced PGE2 synthesis in piglet brain microvascular endothelial cells; format: cell-based, porcine; conditions: for potency and efficacy, IL-1-induced PGE2 synthesis: truncated derivatives, FIG. 18 (WI-38 and endothelial cells)
Protocol: as §1

[4] = TNBS-induced inflammatory bowel disease rat model, Example 6 (48 h; MPO, macroscopic, histologic); format: in vivo; parameters: macroscopic evaluation (median score): scale not given here
Protocol: Colon inflammation was induced by intra-rectal/colon administration of the hapten trinitrobenzene sulphonic acid (TNBS) on male Sprague-Dawley rats (175-200 g) (Bouma, Nature Rev, 2003; Morris, Gastroenterology, 1989). Animals were anesthetized with isoflurane and TNBS dissolved in 50% ethanol (vol/vol). 120 mg/ml (TNBS) was administered into the colon (total volume of 0.25 ml per rat) using a polyethylene tube (PE50). The cannula was inserted at 8 cm from the anus and kept in place for at least 15 min after TNBS administration in order to prevent expulsion of the solution. […] A third group (control) was not injected with TNBS. Six days after administration of TNBS, rats were killed by CO2 inhalation. Day 6 was chosen as an endpoint because by day 7 spontaneous tissue regeneration begins and this can mask the therapeutic effect of the tested peptide or peptide derivative. Colon was removed and examined macroscopically (adhesions, ulcerations, discoloration and bleeding) and histologically (neutrophil infiltration, epithelial injury, crypt distortion and ulcerations) (Anthony et al. 1995; Padol et al. 2000; Dieleman, L A, et al. 1997; Torres M I et al. 1999). Two animals per group were studied.
Colon inflammation was induced by intra-rectal/colon administration of the hapten trinitrobenzene sulphonic acid (TNBS) as described in Example 4. Two hours prior to TNBS administration, peptides, peptidomimetics or 0.9% saline were administered intravenously (iv) via the caudal vein (various concentrations of mg/kg/d) (total volume of 0.3 ml). […] A third group (control) was not injected with TNBS. […] Also, these IL-1R antagonists were given twice a day (BID); Remicade® (anti-TNFα) (10 mg/kg) and dexamethasone (0.75 mg/kg) were administered intraperitoneally but only once a day (qd). The intrarectal administration (ir) of 101.10, 101.113 (1 and 2.5 mg/kg), and 5-ASA (50 mg/kg) was done one hour after TNBS administration, and twice a day, except for 5-ASA which is once a day. Finally, 101.10 (1-5 mg/kg) was also administered orally by gavage (po), twice a day. Forty-eight hours after administration of TNBS, rats were killed by CO2 inhalation. Colon was removed and assessed macroscopically (adhesions, ulcerations, discoloration and bleeding) and histologically (neutrophil infiltration, epithelial injury, crypt distortion and ulcerations). One to seven animals per group were studied, according to treatments. Myeloperoxidase (MPO) activity was measured on tissue lysates.

[5] = tested on: IL-1R/IL-1RacP receptor; assay: Ex vivo vasomotricity: reversal of IL-1β-induced vasodilation of piglet pial vessels; conditions: IL-1β 75 ng/ml
Protocol: Ex vivo vasomotor response on brain vessels was performed as described (Li et al., 1996; Hou et al., 2000; Hou et al., 2001; Hou et al., 2003). Brains were removed from Yorkshire piglets. Slices of cortex exposing the pial vessels were pinned to a wax base of a 20 ml bath containing Krebs buffer (pH 7.4) equilibrated with 95% O2, 5% CO2 and maintained at 37° C. Microvessels were visualized and recorded using a video camera mounted on a dissecting microscope. Vascular diameter was measured using a digital image analyzer. Vascular diameter was recorded before and after topical application of pre-constricting agent, U46619 (10^−7 M). After stabilization of preparation, the ligand (IL-1β, 75 ng/ml) was added until stable vasodilation was detected. Peptides were subsequently added at different concentrations from 10^−10 to 10^−5 M. Reversal of vasodilatation was visualized and measured as previously described (Hou, et al. 2000; Hou et al. 2001; Hou et al. 2003); triplicate measurements were conducted on 2 animals.

[6] = target: T3, IL-1R/IL-1RacP receptor (Homo sapiens, UniProt P14778); assay: IL-1-induced PGE2 synthesis in human chondrocytes; format: cell-based; parameters: endogenous in cells; conditions: alanine scan peptides 10^−6M
T3 sequence (P14778 18-569): T2 sequence (P14778 18-569)
Protocol: as §1

[7] = target: T4, IL-1R/IL-1RacP receptor (Rattus norvegicus, UniProt Q02955); assay: IL-1β-induced systemic hypotension in rats; format: in vivo; conditions: jugular injection
T4 construct: from tissue; host or cells: whole animal, Sprague-Dawley rat
T4 sequence (Q02955 20-576): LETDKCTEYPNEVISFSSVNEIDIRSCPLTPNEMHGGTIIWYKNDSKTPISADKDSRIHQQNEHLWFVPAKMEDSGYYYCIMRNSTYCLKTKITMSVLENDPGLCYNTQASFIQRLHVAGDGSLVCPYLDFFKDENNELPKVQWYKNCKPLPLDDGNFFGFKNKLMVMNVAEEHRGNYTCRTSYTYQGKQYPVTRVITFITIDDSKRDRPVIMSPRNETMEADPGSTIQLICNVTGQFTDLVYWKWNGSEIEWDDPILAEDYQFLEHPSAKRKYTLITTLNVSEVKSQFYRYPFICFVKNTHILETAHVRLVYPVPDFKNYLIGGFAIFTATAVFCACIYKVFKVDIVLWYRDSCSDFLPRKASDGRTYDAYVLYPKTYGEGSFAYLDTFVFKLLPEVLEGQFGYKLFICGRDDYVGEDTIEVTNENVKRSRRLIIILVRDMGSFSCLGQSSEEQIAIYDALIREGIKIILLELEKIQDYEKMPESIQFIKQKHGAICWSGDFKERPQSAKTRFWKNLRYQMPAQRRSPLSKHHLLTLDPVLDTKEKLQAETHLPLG
Protocol: The API-101 derivatives, API-101.10 (SEQ ID NO: 10) (and others) were tested to assess whether they could reverse the physiological actions of the natural ligand in vivo by injecting the derivative through the jugular or directly into the stomach (to verify the stability of the peptide through the digestive tract). Sprague-Dawley rats (300 g) were anesthetized with isoflurane (2.5-4%). The natural ligand (IL-1β) or vehicle (saline) was injected through the jugular vein (5 μg/kg). Blood was taken from the carotid artery for subsequent PGE2 measurements before and 10 min after each injection. Peptides were administered (dosage based on IC50 values and a volume of distribution equivalent to the extracellular space) either in the jugular vein or directly in the stomach (5 times dose used intravenously, (iv)). Arterial blood pressure and heart rate were continuously monitored (Gould) while temperature and blood gases (Radiometer) were measured for routine analysis as previously described (Li et al. 1997; Hardy et al. 1999; Najarian et al. 2000). Experiments were repeated 3 times.

[8] = Continuous infusion (ip), 0.5 mg/kg/d
[9] = Intermittent injection ip, 0.2-BID mg/kg/d

Molecule: CC(C)C[C@@H](NC(=O)[C@@H](CCC(=O)O)NC(=O)[C@H]1CC[C@H]2CC[C@@H](NC(=O)[C@@H](Cc3ccc(O)cc3)NC(=O)[C@H](N)CCCNC(=N)N)C(=O)N21)C(=O)N[C@H](C)C(N)=O [API-101.110, RY(I^2aa)ELA]
efficacy compared with API-101.107 [1]: twice the efficacy | potency, fold higher than API-101.107 [1]: 10 fold | IC50 [2]: 10 pM

Molecule: AARYTVELA [API-101.1]
inhibition of IL-1-induced PGE2 synthesis, compared with parent API-101 [1]: slightly improved efficacy | reversal of IL-1β-induced vasodilation [5]: reversed the vasodilation | vasodilation abolished [5]: 70% | inhibition of IL-1-induced PGE2 synthesis, compared with parent API-101 [6]: slightly improved efficacy

Molecule: TVELA [API-101.12]
potency and efficacy, IL-1-induced PGE2 synthesis [3]: decrease in potency and efficacy

Molecule: YTVELA [API-101.11]
potency and efficacy, IL-1-induced PGE2 synthesis [3]: decrease in potency and efficacy

Second part, led by results:

IC50 ([3]; FIG. 15, cell type not stated): 1.2 pM
Molecule: CC(C)C[C@@H](NC(=O)[C@@H](CCC(=O)O)NC(=O)[C@H]1CCCN1C(=O)[C@H](NC(=O)[C@@H](Cc1ccc(O)cc1)NC(=O)[C@H](N)CCCNC(=N)N)[C@H](C)O)C(=O)N[C@H](C)C(N)=O [API-101.107, RYTPELA] (HELM PEPTIDE1{[dR].[dY].[dT].[dP].[dE].[dL].[dA].[am]}$$$$V2.0; C-terminus assumed)
MPO (% of TNBS + Saline) [4, 8]: 37 % of TNBS + Saline | histologic evaluation (median score) [4, 8]: 1.5 | MPO (% of TNBS + Saline) [4, 9]: 112 % of TNBS + Saline | histologic evaluation (median score) [4, 9]: 2.5 | macroscopic evaluation (median score) [4, 9]: 1.37^† | reduction in MPO activity, macroscopic and histologic score, compared with Kineret ([4]; intraperitoneal osmotic pumps (continuous infusion)): superior or equivalent in efficacy to Kineret

inhibition of IL-1-induced PGE2 synthesis, compared with parent API-101 [1]: lost almost all activity | reversal of IL-1β-induced vasodilation [5]: reversed the vasodilation | inhibition of IL-1-induced PGE2 synthesis, compared with parent API-101 [6]: lost almost all activity
Molecule: APRYTVALA [API-101.6]

prevention of IL-1β-induced hypotension, in words [7]: less effective
Molecule: PRYTVELA [API-101.9]
